Measured values published in PubChem BioAssay AID308 (DTP/NCI, 2004).
Where “and” joins values, the source holds several entries; their conditions need not be identical. Identical values can stand only once. Inconclusive results and toxic doses are left out. Rule for the calls: active = survival T/C of 150% or more; inactive = T/C below 125% in these data.

System: BDF1 mice, L1210 6-MP/6-TG resistant leukemia ip, survival T/C
Experiment: NCI In Vivo Anticancer Drug Screen. Data for tumor model L1210 Leukemia resistant to 6-MP and 6-Thioguanine; NSC 755, NSC 752 (intraperitoneal) in B6D2F1 (BDF1) mice
Conditions: endpoint: mean survival time, higher = longer survival
Description: The antitumor activity of compounds was measured in mice bearing transplantable tumors. Survival or tumor size were measured and the results are expressed as the measurement made in the treated group (T) divided by the measurement made in the vehicle treated control group (C). The tumor model used in this assay is L1210 Leukemia resistant to 6-MP and 6-Thioguanine; NSC 755, NSC 752 (intraperitoneal) in B6D2F1 (BDF1) mice

Measured: T/C

CCCC(=O)OCC1OC(n2cnc3c(=S)nc(N)[nH]c32)C(OC(=O)CCC)C1OC(=O)CCC (stereo not given)
inactive: dose: 6.0 mg/kg/injection, schedule: Q01DX Z (ip), vehicle: carboxymethylcellulose (CMC) 113 % of control | dose: 12.0 mg/kg/injection, schedule: Q01DX Z (ip), vehicle: carboxymethylcellulose (CMC) 93 % of control | dose: 24.0 mg/kg/injection, schedule: Q01DX Z (ip), vehicle: carboxymethylcellulose (CMC) 98 % of control

O=P(O)(OCC1OC(n2cnc3c(=S)nc[nH]c32)C(O)C1O)Oc1ccccc1 (stereo not given)
inactive: dose: 200.0 mg/kg/injection, schedule: Q01DX001 (ip), vehicle: carboxymethylcellulose (CMC) 103 % of control | dose: 300.0 mg/kg/injection, schedule: Q01DX001 (ip), vehicle: carboxymethylcellulose (CMC) 99 % of control | dose: 400.0 mg/kg/injection, schedule: Q01DX001 (ip), vehicle: carboxymethylcellulose (CMC) 100 % of control | dose: 500.0 mg/kg/injection, schedule: Q01DX001 (ip), vehicle: carboxymethylcellulose (CMC) 103 % of control | dose: 750.0 mg/kg/injection, schedule: Q01DX001 (ip), vehicle: carboxymethylcellulose (CMC) 94 % of control | dose: 1000.0 mg/kg/injection, schedule: Q01DX001 (ip), vehicle: carboxymethylcellulose (CMC) 86 % of control

Ic1ncnc2nc[nH]c12
inactive: dose: 62.5 mg/kg/injection, schedule: Q01DX Z (ip), vehicle: carboxymethylcellulose (CMC) 88 % of control | dose: 125.0 mg/kg/injection, schedule: Q01DX Z (ip), vehicle: carboxymethylcellulose (CMC) 89 % of control | dose: 250.0 mg/kg/injection, schedule: Q01DX Z (ip), vehicle: carboxymethylcellulose (CMC) 89 % of control

CCC(=O)OCC1OC(n2cnc3c(=S)nc(N)[nH]c32)C(OC(=O)CC)C1OC(=O)CC (stereo not given)
inactive: dose: 5.0 mg/kg/injection, schedule: Q01DX Z (ip), vehicle: carboxymethylcellulose (CMC) 109 % of control | dose: 10.0 mg/kg/injection, schedule: Q01DX Z (ip), vehicle: carboxymethylcellulose (CMC) 117 % of control | dose: 20.0 mg/kg/injection, schedule: Q01DX Z (ip), vehicle: carboxymethylcellulose (CMC) 109 % of control | dose: 40.0 mg/kg/injection, schedule: Q01DX Z (ip), vehicle: carboxymethylcellulose (CMC) 103 % of control

CC(=O)N(C)C
inactive: dose: 7.5 mg/kg/injection, schedule: Q01DX Z (ip), vehicle: saline 115 % of control | dose: 15.0 mg/kg/injection, schedule: Q01DX Z (ip), vehicle: saline 110 % of control | dose: 30.0 mg/kg/injection, schedule: Q01DX Z (ip), vehicle: saline 107 % of control | dose: 62.5 mg/kg/injection, schedule: Q01DX Z (ip), vehicle: saline 110 % of control | dose: 125.0 mg/kg/injection, schedule: Q01DX Z (ip), vehicle: saline 114 % of control | dose: 250.0 mg/kg/injection, schedule: Q01DX Z (ip), vehicle: saline 109 % of control | dose: 500.0 mg/kg/injection, schedule: Q01DX Z (ip), vehicle: saline 120 % of control

Nc1nc2n[nH]nc2c(=O)[nH]1
inactive: dose: 12.5 mg/kg/injection, schedule: Q01DX Z (ip), vehicle: water 100 % of control | dose: 25.0 mg/kg/injection, schedule: Q01DX Z (ip), vehicle: water 104 % of control | dose: 50.0 mg/kg/injection, schedule: Q01DX Z (ip), vehicle: water 98 % of control | dose: 100.0 mg/kg/injection, schedule: Q01DX Z (ip), vehicle: water 92 % of control | dose: 200.0 mg/kg/injection, schedule: Q01DX Z (ip), vehicle: water 95 % of control

CC(C)n1cnc2c(=S)nc[nH]c21
inactive: dose: 2.5 mg/kg/injection, schedule: Q01DX015 (ip), vehicle: carboxymethylcellulose (CMC) 96 % of control | dose: 5.0 mg/kg/injection, schedule: Q01DX015 (ip), vehicle: carboxymethylcellulose (CMC) 96 % of control | dose: 10.0 mg/kg/injection, schedule: Q01DX015 (ip), vehicle: carboxymethylcellulose (CMC) 96 % of control | dose: 20.0 mg/kg/injection, schedule: Q01DX015 (ip), vehicle: carboxymethylcellulose (CMC) 94 % of control | dose: 42.0 mg/kg/injection, schedule: Q01DX015 (ip), vehicle: carboxymethylcellulose (CMC) 86 % of control and 100 % of control | dose: 63.0 mg/kg/injection, schedule: Q01DX015 (ip), vehicle: carboxymethylcellulose (CMC) 86 % of control | dose: 95.0 mg/kg/injection, schedule: Q01DX015 (ip), vehicle: carboxymethylcellulose (CMC) 86 % of control
